Data as given in ChEMBL document CHEMBL1201862, “PubChem BioAssay data set” (2004).
Active and inactive are the calls of the source.

Tests used:
[1] = target: T1, Peroxisome proliferator-activated receptor gamma/Nuclear receptor coactivator 2 (Homo sapiens, UniProt P37231); type: functional
[2] = target: T2, Peroxisome proliferator-activated receptor gamma/Nuclear receptor coactivator 1 (Homo sapiens, UniProt P37231); type: functional
[3] = target: T3, Peroxisome proliferator-activated receptor gamma/Nuclear receptor coactivator 3 (Homo sapiens, UniProt P37231); type: functional
T3 sequence (P37231 whole entry): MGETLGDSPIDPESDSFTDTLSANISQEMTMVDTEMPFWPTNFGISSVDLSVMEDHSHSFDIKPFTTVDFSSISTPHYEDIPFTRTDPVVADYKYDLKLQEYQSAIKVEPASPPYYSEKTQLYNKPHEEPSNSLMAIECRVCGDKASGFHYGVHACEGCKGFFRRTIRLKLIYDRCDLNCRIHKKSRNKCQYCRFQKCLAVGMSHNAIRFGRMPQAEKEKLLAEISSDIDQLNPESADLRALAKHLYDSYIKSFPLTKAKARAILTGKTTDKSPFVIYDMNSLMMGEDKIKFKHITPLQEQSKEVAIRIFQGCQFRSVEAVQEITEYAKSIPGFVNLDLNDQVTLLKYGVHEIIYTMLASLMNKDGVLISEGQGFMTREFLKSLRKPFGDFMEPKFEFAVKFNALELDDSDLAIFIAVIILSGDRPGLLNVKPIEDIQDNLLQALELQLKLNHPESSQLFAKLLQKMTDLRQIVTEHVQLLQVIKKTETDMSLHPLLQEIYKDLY
T3 sequence (Q9Y6Q9 whole entry, further chain): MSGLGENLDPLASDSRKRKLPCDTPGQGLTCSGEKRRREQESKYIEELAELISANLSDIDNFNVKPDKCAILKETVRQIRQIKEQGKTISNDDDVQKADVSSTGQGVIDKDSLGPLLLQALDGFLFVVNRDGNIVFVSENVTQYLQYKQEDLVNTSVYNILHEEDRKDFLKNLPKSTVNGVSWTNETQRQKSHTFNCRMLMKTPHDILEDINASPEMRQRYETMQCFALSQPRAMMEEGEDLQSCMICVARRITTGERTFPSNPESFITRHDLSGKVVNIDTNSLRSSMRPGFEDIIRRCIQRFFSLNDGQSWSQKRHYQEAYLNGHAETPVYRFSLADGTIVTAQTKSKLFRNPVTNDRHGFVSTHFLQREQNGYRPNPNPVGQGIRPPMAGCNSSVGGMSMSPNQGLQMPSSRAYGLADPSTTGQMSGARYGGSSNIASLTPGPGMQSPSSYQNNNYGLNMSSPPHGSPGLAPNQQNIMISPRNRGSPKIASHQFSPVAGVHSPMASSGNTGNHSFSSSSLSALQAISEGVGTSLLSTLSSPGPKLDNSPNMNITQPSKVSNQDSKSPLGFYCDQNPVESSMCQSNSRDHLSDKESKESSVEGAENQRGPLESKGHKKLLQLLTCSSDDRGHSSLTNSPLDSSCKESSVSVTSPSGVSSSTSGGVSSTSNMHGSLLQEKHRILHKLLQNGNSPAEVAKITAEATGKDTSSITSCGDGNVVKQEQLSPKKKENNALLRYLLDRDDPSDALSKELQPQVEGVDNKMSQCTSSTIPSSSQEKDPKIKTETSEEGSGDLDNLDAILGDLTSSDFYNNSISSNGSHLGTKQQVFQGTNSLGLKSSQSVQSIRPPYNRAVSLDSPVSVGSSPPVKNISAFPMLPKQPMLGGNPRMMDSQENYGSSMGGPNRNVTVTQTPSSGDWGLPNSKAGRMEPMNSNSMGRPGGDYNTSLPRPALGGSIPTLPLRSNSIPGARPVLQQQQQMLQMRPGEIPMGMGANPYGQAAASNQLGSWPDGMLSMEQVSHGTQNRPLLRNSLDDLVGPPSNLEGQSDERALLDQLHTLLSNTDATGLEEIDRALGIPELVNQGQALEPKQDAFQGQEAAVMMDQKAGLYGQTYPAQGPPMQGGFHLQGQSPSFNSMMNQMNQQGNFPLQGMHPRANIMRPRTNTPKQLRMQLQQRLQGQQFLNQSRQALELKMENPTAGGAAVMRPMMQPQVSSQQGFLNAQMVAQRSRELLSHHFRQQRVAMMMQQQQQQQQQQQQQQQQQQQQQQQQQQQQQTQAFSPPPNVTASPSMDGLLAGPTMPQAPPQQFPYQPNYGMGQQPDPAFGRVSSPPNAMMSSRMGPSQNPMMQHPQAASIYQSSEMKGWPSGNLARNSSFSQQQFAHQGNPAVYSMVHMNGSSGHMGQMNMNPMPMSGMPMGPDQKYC

Estrogen receptor = target: T4, Estrogen receptor (Homo sapiens, UniProt P03372);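 also: potency for inhibiting coactivator peptide recruitment to the receptor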
T4 sequence (P03372 whole entry): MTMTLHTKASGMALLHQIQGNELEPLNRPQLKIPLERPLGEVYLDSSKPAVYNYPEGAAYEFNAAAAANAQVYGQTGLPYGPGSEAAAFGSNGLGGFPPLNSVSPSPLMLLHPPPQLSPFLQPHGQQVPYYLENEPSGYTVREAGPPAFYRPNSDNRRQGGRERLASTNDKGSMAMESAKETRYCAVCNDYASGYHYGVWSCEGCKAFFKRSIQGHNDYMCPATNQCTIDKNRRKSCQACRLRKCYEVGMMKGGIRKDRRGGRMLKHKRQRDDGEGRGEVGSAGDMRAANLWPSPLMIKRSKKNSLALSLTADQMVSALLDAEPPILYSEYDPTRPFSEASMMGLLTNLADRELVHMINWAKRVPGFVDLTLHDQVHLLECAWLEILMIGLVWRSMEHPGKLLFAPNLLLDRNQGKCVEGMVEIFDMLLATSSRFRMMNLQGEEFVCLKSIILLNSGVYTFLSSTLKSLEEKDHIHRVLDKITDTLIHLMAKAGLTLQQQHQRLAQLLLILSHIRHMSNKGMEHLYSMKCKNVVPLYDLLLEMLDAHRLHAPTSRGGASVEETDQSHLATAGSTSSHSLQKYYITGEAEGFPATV

Cytochrome P450 2C19 = Cytochrome P450 2C19 (Homo sapiens, UniProt P33261); assay: Cytochrome panel assay with activity outcomes. Panel member name: p450-cyp2c19 Compounds with AC50 equal or less than 10 uM are considered active; type: functional; settings: read-out: AC50
Chain of Cytochrome P450 2C19 (P33261 whole entry): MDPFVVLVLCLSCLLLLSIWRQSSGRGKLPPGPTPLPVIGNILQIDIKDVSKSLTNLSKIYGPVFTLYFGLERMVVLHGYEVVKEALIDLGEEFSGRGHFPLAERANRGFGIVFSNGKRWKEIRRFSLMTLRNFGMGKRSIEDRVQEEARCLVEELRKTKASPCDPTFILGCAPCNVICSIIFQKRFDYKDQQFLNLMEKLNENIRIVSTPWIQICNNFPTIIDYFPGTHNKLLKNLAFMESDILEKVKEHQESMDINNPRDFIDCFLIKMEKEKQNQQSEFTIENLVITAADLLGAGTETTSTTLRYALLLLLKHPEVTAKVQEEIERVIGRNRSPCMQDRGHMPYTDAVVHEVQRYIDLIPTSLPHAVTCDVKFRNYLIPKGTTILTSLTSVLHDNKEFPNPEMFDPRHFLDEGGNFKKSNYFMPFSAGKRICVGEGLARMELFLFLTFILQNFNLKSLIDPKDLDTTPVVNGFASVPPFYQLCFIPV

Cytochrome P450 2C9 = Cytochrome P450 2C9 (Homo sapiens, UniProt P11712)
[4] = target: T2, Peroxisome proliferator-activated receptor gamma/Nuclear receptor coactivator 1; assay: (§1) TR-FRET dose response biochemical High Throughput Screening assay for agonists of the steroid receptor coactivator 1 (SRC-1) recruitment by the peroxisome proliferator-activated receptor gamma (PPAR gamma): non-selective agonists. [Related pubchem assays (depositor defined):AID1300, AID1808, AID504735, AID631]; type: protein assay
[5] = target: T3, Peroxisome proliferator-activated receptor gamma/Nuclear receptor coactivator 3; assay: as §1, with “3 (SRC-3)” for “1 (SRC-1)”, “assays: 1301 (Confirmation screen.), 1048 (Primary screen.)]” for “assays (depositor defined):AID1300, AID1808, AID504735, AID631]”; type: functional
[6] = target: T1, Peroxisome proliferator-activated receptor gamma/Nuclear receptor coactivator 2; assay: TR-FRET dose response biochemical High Throughput Screening assay for agonists of the steroid receptor coactivator 2 (SRC-2) recruitment by the peroxisome proliferator-activated receptor gamma (PPAR gamma): non-selective agonists. [Related pubchem assays: 1297, 1032 ]; type: functional
Ephrin type-A receptor 4 = Ephrin type-A receptor 4 (Mus musculus, UniProt Q03137); assay: inhibitors of EphA4 binding to KYL peptide, primary screen, biochemical, colorimetric, mouse EphA4 (AID 689); type: functional
Nonstructural protein 1 = Nonstructural protein 1 (Influenza A virus, UniProt Q194T2); type: functional, Influenza A virus (A/California/07/2009(H1N1))
Chain of Nonstructural protein 1 (Q194T2 whole entry): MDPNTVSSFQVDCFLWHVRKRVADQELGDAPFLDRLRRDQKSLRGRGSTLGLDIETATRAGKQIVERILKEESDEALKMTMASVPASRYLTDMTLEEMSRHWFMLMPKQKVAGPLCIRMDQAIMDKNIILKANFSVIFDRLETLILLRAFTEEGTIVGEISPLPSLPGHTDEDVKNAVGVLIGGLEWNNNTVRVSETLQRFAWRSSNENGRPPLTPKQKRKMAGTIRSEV

[7] = target: 26S proteasome non-ATPase regulatory subunit 14 (Homo sapiens, UniProt O00487); assay: inhibition of proteasome subunit RPN11 – biochemical, fluorescence polarization, uHTS hits, confirmation (AID 602368); type: functional
[8] = target: 72 kDa type IV collagenase (Homo sapiens, UniProt P08253); assay: Dose Response validation of uHTS RPN11 inhibitor hits using a MMP-2 Fluorescence assay.; type: functional
Prothrombin = Prothrombin (Bos taurus, UniProt P00735); assay: thrombin inhibition, dose response, biochemical, fluorescence polarization, uHTS hits (AID 602369); type: functional
[9] = target: Epstein-Barr nuclear antigen 1 (Epstein-Barr virus (strain B95-8) (HHV-4) (Human herpesvirus 4), UniProt P03211); assay: EBNA-1 inhibitors, dose response, biochemical, fluorescence polarization, 1536-well (AID 2381); design: species or system human gammaherpesvirus 4;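 also: fluorescence polarization of a Cy5 DNA probe bound by EBNA-1 protein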
[10] = target: Lytic switch protein BZLF1 (Epstein-Barr virus (strain B95-8) (HHV-4) (Human herpesvirus 4), UniProt P03206); assay: EBV ZTA inhibitors, dose response, counter-screen for EBNA-1 inhibitor project, biochemical, fluorescence polarization, Epstein-Barr virus, 1536-well (AID 2377); design: species or system human gammaherpesvirus 4;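 also: fluorescence polarization of Cy5-labelled ZRE DNA probe bound by purified Zta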
[11] = target: T5, Sphingosine 1-phosphate receptor 4 (Homo sapiens, UniProt O95977); assay: Fluorescence dose response cell-based high throughput screening assay for antagonists of the Sphingosine 1-Phosphate Receptor 4 (S1P4). [Related pubchem assays: 1524 (Confirmation in triplicates.), 1510 (Primary screen.)]; type: functional
T5 sequence (O95977 whole entry): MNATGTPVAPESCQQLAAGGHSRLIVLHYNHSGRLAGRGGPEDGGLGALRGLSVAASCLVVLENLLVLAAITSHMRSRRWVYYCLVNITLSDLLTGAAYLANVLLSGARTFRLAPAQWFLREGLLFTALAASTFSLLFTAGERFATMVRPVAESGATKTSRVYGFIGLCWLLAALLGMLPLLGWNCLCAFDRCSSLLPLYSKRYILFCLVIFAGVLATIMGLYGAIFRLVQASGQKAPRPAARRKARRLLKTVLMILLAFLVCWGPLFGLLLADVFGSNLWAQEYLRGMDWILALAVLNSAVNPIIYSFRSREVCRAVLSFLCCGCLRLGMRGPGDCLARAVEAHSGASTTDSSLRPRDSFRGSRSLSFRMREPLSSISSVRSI

[12] = target: Sphingosine 1-phosphate receptor 1 (Homo sapiens, UniProt P21453); type: functional;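 also: Tango beta-arrestin reporter U2OS cells stimulated with S1P near its EC80; inhibitor potency meaning antagonism of receptor activation by the natural agonist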
Chain of Sphingosine 1-phosphate receptor 1 (P21453 whole entry): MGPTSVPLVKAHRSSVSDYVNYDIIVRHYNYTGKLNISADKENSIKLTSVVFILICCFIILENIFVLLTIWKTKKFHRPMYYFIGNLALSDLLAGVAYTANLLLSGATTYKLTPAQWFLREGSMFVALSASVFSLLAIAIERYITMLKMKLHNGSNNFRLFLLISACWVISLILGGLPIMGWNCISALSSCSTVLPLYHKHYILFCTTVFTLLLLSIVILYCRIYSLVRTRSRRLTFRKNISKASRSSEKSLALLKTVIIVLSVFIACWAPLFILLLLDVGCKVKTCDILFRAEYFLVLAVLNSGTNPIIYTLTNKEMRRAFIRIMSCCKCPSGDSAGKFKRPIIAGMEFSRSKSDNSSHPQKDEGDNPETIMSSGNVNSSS

Vero [13] = assay: cells; type: functional, cell-based; settings: Chlorocebus sabaeus
Vero [14] = assay: cells; type: functional; settings: Chlorocebus sabaeus

T2 sequence (P37231 whole entry): as the sequence (P37231 whole entry) above
T2 sequence (Q15788 whole entry, further chain): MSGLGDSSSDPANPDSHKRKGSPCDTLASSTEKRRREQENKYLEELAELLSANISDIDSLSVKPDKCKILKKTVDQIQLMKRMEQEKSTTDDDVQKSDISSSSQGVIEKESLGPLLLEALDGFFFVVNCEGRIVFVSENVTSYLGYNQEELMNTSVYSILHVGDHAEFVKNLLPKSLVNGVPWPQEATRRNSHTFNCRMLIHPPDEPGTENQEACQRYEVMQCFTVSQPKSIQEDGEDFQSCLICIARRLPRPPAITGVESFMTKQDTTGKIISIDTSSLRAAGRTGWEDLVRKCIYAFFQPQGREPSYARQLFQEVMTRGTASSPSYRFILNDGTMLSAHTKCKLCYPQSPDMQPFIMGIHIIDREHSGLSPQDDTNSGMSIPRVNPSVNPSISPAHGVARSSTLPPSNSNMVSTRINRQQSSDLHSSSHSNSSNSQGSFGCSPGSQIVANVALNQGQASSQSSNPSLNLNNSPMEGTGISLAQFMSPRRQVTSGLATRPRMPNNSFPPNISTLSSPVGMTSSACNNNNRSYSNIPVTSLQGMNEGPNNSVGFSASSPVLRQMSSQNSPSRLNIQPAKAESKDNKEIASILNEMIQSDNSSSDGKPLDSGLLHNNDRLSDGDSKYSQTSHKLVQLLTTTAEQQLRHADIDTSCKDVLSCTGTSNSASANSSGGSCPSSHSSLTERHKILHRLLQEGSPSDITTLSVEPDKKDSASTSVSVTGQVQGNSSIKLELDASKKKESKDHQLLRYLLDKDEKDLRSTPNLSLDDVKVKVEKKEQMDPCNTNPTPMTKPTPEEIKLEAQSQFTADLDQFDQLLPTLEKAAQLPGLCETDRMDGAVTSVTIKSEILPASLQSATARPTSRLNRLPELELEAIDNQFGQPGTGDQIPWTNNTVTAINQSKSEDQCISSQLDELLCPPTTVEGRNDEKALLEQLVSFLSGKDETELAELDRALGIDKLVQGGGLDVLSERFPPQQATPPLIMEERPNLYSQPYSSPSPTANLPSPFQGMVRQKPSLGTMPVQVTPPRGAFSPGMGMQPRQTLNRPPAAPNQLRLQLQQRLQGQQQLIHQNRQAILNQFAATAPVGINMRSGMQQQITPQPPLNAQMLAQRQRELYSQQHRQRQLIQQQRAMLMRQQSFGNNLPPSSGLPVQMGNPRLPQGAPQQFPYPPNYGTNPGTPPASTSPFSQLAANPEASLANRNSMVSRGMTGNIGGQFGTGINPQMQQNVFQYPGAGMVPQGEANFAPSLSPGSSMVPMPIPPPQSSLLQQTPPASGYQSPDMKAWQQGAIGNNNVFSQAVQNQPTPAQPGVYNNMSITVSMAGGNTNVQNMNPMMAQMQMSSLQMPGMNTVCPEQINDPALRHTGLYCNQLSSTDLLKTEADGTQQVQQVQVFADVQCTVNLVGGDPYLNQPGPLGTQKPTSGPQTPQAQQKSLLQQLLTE

Structure (SMILES): Cc1cc(C(=O)N/N=C/c2c[nH]nc2-c2ccccc2)cs1
- EC50 [1]: > 79.4 µM (not active)
- EC50 [2]: > 79.4 µM (not active)
- EC50 [3]: > 79.4 µM (not active)

Structure (SMILES): Cc1nnc(NC(=O)CSc2nc3c(c(=O)n2CCc2ccccc2)SC(C)C3)s1 (stereo not drawn)
- IC50 (Estrogen receptor): 17.5 µM (active)

Structure (SMILES): CCOC(=O)c1sc2nc(CC(=O)OC)nc(NCc3ccc(F)cc3)c2c1C
- EC50 [1]: > 79.4 µM (not active)
- EC50 [2]: > 79.4 µM (not active)
- EC50 [3]: > 79.4 µM (not active)
- AC50 (Cytochrome P450 2C19): 5.62 µM (inconclusive)
- AC50 (Cytochrome P450 2C9): 5.01 µM (inconclusive)

Structure (SMILES): CN(C)c1ccc(/C=C/C=C2/SC(=S)N(c3ccccc3)C2=O)cc1
- EC50 [4]: > 79.4 µM (inactive)
- EC50 [5]: > 79.4 µM (not active)
- EC50 [6]: > 79.4 µM (not active)
- IC50 (Ephrin type-A receptor 4): 0.6 µM (active)
- IC50 (Nonstructural protein 1): 5.48 µM (active)
- IC50 [7]: 0.703 µM (active)
- IC50 [8]: > 100 µM (inactive)
- IC50 (Prothrombin): 0.529 µM (active)

Structure (SMILES): O=C(COC(=O)/C=C/c1ccccc1)Nc1cc(C(F)(F)F)ccc1N1CCOCC1
- IC50 [9]: 7.3 µM (active)
- IC50 [10]: > 111 µM (not active)

Structure (SMILES): O=C(/C=C/c1ccccc1)CC(O)(c1ccccc1)C(F)(F)F (stereo not drawn)
- IC50 [11]: 1.97 µM (active)
- IC50 [12]: 25.9 µM (not active)
- IC50 (Vero [13]): > 25 µM (active)
- CC50 (Vero [14]): 13.6 µM (active)
